What was measured:
Format in all cases: cell-based
[1] = tested on: HCV genotype 1b replicon (Huh-Luc-Neo cells); experiment: HCV Replicon RNA (Taqman) Assay, genotype 1b; conditions: Hepatitis C virus, 72 h, read-out: HCV-1b Replicon Inhibition*, Taqman (EC50)
[2] = tested on: HCV genotype 1b replicon (Huh-Luc-Neo cells); experiment: HCV Replicon Luciferase Assay; conditions: Hepatitis C virus, 72 h, read-out: HCV-1b Replicon Inhibition*, Luciferase (EC50)
[3] = Cell Titer-Glo Cell Viability Assay, genotype 1b cells; conditions: human, Huh-Luc-Neo (HCV genotype 1b replicon) cells, HCV genotype 1b assays, read-out: Cytotoxicity* (CC50)
Experimental: Cell Seeding and Compound Treatment: Huh-Luc-Neo (Genotype 1b) or En5-3/Htat2ANeo (Genotype 1a) cells are seeded at 5000-7000/well in an opaque-walled 96 plate with Growth Medium (DMEM phenol red free+PS+2 mM glutamine; 100 ul/well). The compounds to be tested for inhibition of cell viability are added to the experimental wells so as to generate a dose response curve (8-9 concentrations, 10 μl/well at 10× assay concentration) and the cells are then incubated (5% CO2, 37° C.) for 72 h.
Reagent Preparation and Assay: After completion of the incubation period the cell viability measurements are made using the Cell Titre Glo Assay (Promega) according to the manufacturer's recommended protocol. Briefly, the CellTiter-Glo Buffer is thawed and equilibrated to room temperature prior to use. The lyophilized CellTiter-Glo Substrate is also equilibrated to room temperature prior to use. 10 ml of CellTiter-Glo Buffer is then transferred to 1 vial of CellTiter-Glo Substrate and mixed gently with a Vortex. 100 μl of CellTiter-Glo Assay reagent (CellTiter-Glo Buffer+CellTiter-Glo Substrate Mixture) is added to each well. The well contents are mixed for 5 min. on an orbital shaker at room temperature to induce cell lysis and the luminescence is then measured using a luminometer.

[4] = Huh-Luc-Neo cells, genotype 1b, HCV RNA
[5] = GETYPE1B, Huh-Luc-Neo cells, genotype 1b, HCV RNA
[6] = GETYPE1B, Huh-Luc-Neo cells, genotype 1b

| Compound | EC50 [1, 4] [µM] | EC50 ([2]; Huh-Luc-Neo cells, genotype 1b) [µM] | CC50 at 72 h [3] [µM] | EC50 [1, 5] [µM] | EC50 [2, 6] [µM] | EC50 [1] [µM] | EC50 [2] [µM] |
| --- | --- | --- | --- | --- | --- | --- | --- |
| COc1ccc(C[C@H](NC(=O)OC(C)(C)C)C(=O)N2CCCCC2C(=O)Nc2ccc(C#Cc3cn(C)nc3-c3cc(C)ccc3O)cc2)cc1 (stereo partly drawn) [Compound 4] | < 1 | < 1 | < 1 |  |  |  |  |
| Cc1ccc(O)c(-c2nn(C)cc2C#Cc2ccc(NC(=O)[C@@H]3CN(C(=O)C(F)(F)F)CCN3C(=O)[C@H](NC(=O)OC(C)(C)C)c3ccccc3)cc2)c1 [Compound 41] | < 1 | < 1 | > 100 |  |  |  |  |
| Cc1ccc(O)c(-c2nn(C)cc2C#Cc2ccc(NC(=O)C3CCCCN3C(=O)[C@H](Cc3cccc(F)c3)NC(=O)OC(C)(C)C)cc2)c1 (stereo partly drawn) [Compound 27] | < 1 | < 1 | 10 to 100 |  |  |  |  |
| Cc1ccc(O)c(-c2nn(C)cc2C#Cc2ccc(NC(=O)C3CCCCN3S(=O)(=O)c3cccs3)cc2)c1 (stereo not drawn) [Compound 12] | < 1 | < 1 | > 100 |  |  |  |  |
| Cn1cc(C#Cc2ccc(NC(=O)[C@@H]3CCCCN3C(=O)[C@H](NC(=O)OC(C)(C)C)c3cccs3)cc2)c(-c2cc(Br)ccc2O)n1 [Example 48] | < 1 | < 1 | > 100 |  |  |  |  |
| CCOC(=O)c1ccc(O)c(-c2nn(C)cc2C#Cc2ccc(NC(=O)[C@@H]3CCCCN3C(=O)[C@H](NC(=O)OC(C)(C)C)c3ccccc3)cc2)c1 [Compound 30] | < 1 | < 1 | > 100 |  |  |  |  |
| COc1ccccc1[C@@H](NC(=O)OC(C)(C)C)C(=O)N1CCOC[C@H]1C(=O)Nc1ccc(C#Cc2cn(C)nc2-c2cc(C#N)ccc2O)cc1 [Compound 22A] |  |  | > 100 | < 1 | < 1 |  |  |
| Cc1ccc(OS(=O)(=O)C(F)(F)F)c(-c2nn(C)cc2C#Cc2ccc(NC(=O)C3CCCCN3C(=O)[C@H](Cc3ccccc3)NC(=O)OC(C)(C)C)cc2)c1 (stereo partly drawn) [Compound 11] | < 1 | < 1 | > 100 |  |  |  |  |
| CC(C)(C)OC(=O)N[C@@H](C(=O)N1CCOCC1C(=O)Nc1ccc(C#Cc2cn(CCO)nc2-c2cc(Cl)ccc2O)cc1)c1ccccc1 (stereo partly drawn) [Compound 30A] |  |  | > 100 | < 1 | < 1 |  |  |
| Cn1cc(C#Cc2ccc(NC(=O)[C@H]3CCCCN3C(=O)C(NC(=O)OC(C)(C)C)c3ccccc3)cc2)c(-c2cc(Br)ccc2O)n1 (stereo partly drawn) [Example 20] | < 1 | < 1 | 10 to 100 |  |  |  |  |
| Cc1ccc(O)c(-c2nn(C)cc2C#Cc2ccc(NC(=O)C3CCCCN3C(=O)[C@H](Cc3ccc(Cl)cc3Cl)NC(=O)OC(C)(C)C)cc2)c1 (stereo partly drawn) [Compound 6] | < 1 | < 1 | > 100 |  |  |  |  |
| Cc1ccc(O)c(-c2nn(C)cc2C#Cc2ccc(NC(=O)C3CCCCN3C(=O)[C@H](Cc3ccccc3)NC(=O)CC3CCCCC3)cc2)c1 (stereo partly drawn) [Compound 9] | < 1 | < 1 | 10 to 100 |  |  |  |  |
| Cc1ccc(O)c(-c2nn(C)cc2C#Cc2ccc(NC(=O)C3CCCCN3C(=O)[C@H](Cc3ccco3)NC(=O)OC(C)(C)C)cc2)c1 (stereo partly drawn) [Compound 12A] |  |  | 10 to 100 | < 1 | < 1 |  |  |
| Cc1ccc(OCC(N)=O)c(-c2nn(C)cc2C#Cc2ccc(NC(=O)C3CCCCN3C(=O)[C@H](Cc3ccccc3)NC(=O)OC(C)(C)C)cc2)c1 (stereo partly drawn) [Compound 58] |  |  | 10 to 100 |  |  | > 100 | 1 to 10 |
| Cn1cc(C#Cc2ccc(NC(=O)[C@@H]3CCCCN3C(=O)[C@@H](NC(=O)OC(C)(C)C)c3ccsc3)cc2)c(-c2cc(Br)ccc2O)n1 [Example 49] | < 1 | < 1 | 10 to 100 |  |  |  |  |
| Cn1cc(C#Cc2ccc(NC(=O)[C@@H]3COCCN3C(=O)[C@H](NC(=O)OC(C)(C)C)c3ccsc3)cc2)c(-c2cc(C#N)ccc2O)n1 [Compound 34] | < 1 | < 1 | > 100 |  |  |  |  |
| Cc1ccc(O)c(-c2nn(C)cc2C#Cc2ccc(NC(=O)C3CCCCN3C(=O)[C@@H](NC(=O)OC(C)(C)C)C3CCCCC3)cc2)c1 (stereo partly drawn) [Compound 13] | < 1 | 1 to 10 | > 100 |  |  |  |  |
| Cc1ccc(O)c(-c2nn(C)cc2C#Cc2ccc(NC(=O)C3CCCCN3C(=O)[C@H](Cc3ccc(Cl)cc3)NC(=O)OC(C)(C)C)cc2)c1 (stereo partly drawn) [Compound 23] | < 1 | < 1 | 10 to 100 |  |  |  |  |

| Compound | EC50 [1, 4] [µM] | EC50 ([2]; Huh-Luc-Neo cells, genotype 1b) [µM] | CC50 at 72 h [3] [µM] | EC50 [1, 5] [µM] | EC50 [2, 6] [µM] | EC50 [1] [µM] | EC50 [2] [µM] |
| --- | --- | --- | --- | --- | --- | --- | --- |
| CCOC(=O)c1ccc(O)c(-c2nn(C)cc2C#Cc2ccc(NC(=O)[C@@H]3CCCCN3C(=O)[C@H](NC(=O)OC(C)(C)C)c3ccccc3OC)cc2)c1 [Compound 31] | < 1 | < 1 | > 100 |  |  |  |  |
| Cc1ccc(O)c(-c2nn(C)cc2C#Cc2ccc(NC(=O)[C@@H]3CCCCN3C(=O)[C@H](NC(=O)OC(C)(C)C)c3cccs3)cc2)c1 [Example 50] | < 1 | < 1 | > 100 |  |  |  |  |
| CC(=O)Oc1ccc(C)cc1-c1nn(C)cc1C#Cc1ccc(NC(=O)C2CCCCN2S(=O)(=O)c2cccs2)cc1 (stereo not drawn) [Compound 63] | 1 to 10 | 1 to 10 | > 100 |  |  |  |  |
| CN(C(=O)OC(C)(C)C)[C@@H](Cc1ccccc1)C(=O)N1CCCC[C@@H]1C(=O)Nc1ccc(C#Cc2cn(CCO)nc2-c2cc(Cl)ccc2O)cc1 [Compound 42] | < 1 | < 1 | 10 to 100 |  |  |  |  |
| Cc1ccc(O)c(-c2nn(C)cc2C#Cc2ccc(NC(=O)[C@@H]3CNCCN3C(=O)[C@H](NC(=O)OC(C)(C)C)c3ccccc3)cc2)c1 [Compound 27A] |  |  | 10 to 100 | < 1 | < 1 |  |  |
| CCOC(=O)c1ccc(O)c(-c2nn(C)cc2C#Cc2ccc(NC(=O)[C@@H]3CCCCN3C(=O)[C@H](NC(=O)OC(C)(C)C)c3ccsc3)cc2)c1 [Compound 33] | < 1 | < 1 | > 100 |  |  |  |  |
| Cc1ccc(O)c(-c2nn(C)cc2C#Cc2ccc(NC(=O)C3CCCCN3C(=O)[C@H](Cc3ccccc3)NC(=O)CC(C)(C)C)cc2)c1 (stereo partly drawn) [Compound 8] | < 1 | < 1 | 10 to 100 |  |  |  |  |
| Cc1ccc(O)c(-c2nn(C)cc2C#Cc2ccc(NC(=O)C3CCCCN3C(=O)[C@H](Cc3ccccc3)NC(=O)OC(C)(C)C)cc2)c1 (stereo partly drawn) [Compound 14] | < 1 | < 1 | > 100 |  |  |  |  |
| Cc1ccc(O)c(-c2nn(C)cc2C#Cc2ccc(NC(=O)C3CCCCN3C(=O)[C@H](Cc3cccnc3)NC(=O)OC(C)(C)C)cc2)c1 (stereo partly drawn) [Compound 3] | < 1 | < 1 | > 100 |  |  |  |  |
| Cc1ccc(O)c(-c2nn(C)cc2C#Cc2ccc(NC(=O)C3CCCCN3C(=O)[C@H](Cc3ccc(Br)cc3)NC(=O)OC(C)(C)C)cc2)c1 (stereo partly drawn) [Compound 26] | < 1 | < 1 | 10 to 100 |  |  |  |  |
| Cc1ccc(O)c(-c2nn(C)cc2C#Cc2ccc(NC(=O)C3CCCCN3C(=O)[C@H](Cc3ccccc3)NC(=O)CC3CCCC3)cc2)c1 (stereo partly drawn) [Compound 7] | < 1 | < 1 | > 100 |  |  |  |  |
| Cc1ccc(O)c(-c2nn(C)cc2C#Cc2ccc(NC(=O)[C@@H]3CCCCN3C(=O)[C@@H](NC(=O)OC(C)(C)C)c3ccccc3)cc2)c1 [Example 17] | < 1 | < 1 | > 100 |  |  |  |  |
| Cc1ccc(O)c(-c2nn(C)cc2C#Cc2ccc(NC(=O)C3CCCCN3C(=O)[C@]3(NC(=O)OC(C)(C)C)C[C@@H]3c3ccccc3)cc2)c1 (stereo partly drawn) [Example 21] | < 1 | < 1 | 10 to 100 |  |  |  |  |
| Cc1ccc(O)c(-c2nn(C)cc2C#Cc2ccc(NC(=O)C3CCCCN3C(=O)C(c3ccccc3)N(C)C(=O)OC(C)(C)C)cc2)c1 (stereo not drawn) [Compound 56] | 1 to 10 | 1 to 10 | 10 to 100 |  |  |  |  |
| Cc1ccc(O)c(-c2nn(C)cc2C#Cc2ccc(NC(=O)C3CCCCN3C(=O)[C@H](Cc3ccc(C(N)=O)cc3)NC(=O)OC(C)(C)C)cc2)c1 (stereo partly drawn) [Compound 24] | < 1 | < 1 | 10 to 100 |  |  |  |  |
| Cc1ccc(O)c(-c2nn(C)cc2C#Cc2ccc(NC(=O)C3CCCCN3C(=O)C(NC(=O)OC(C)(C)C)c3ccccc3)cc2)c1 (stereo not drawn) [Compound 1] | < 1 | 1 to 10 | > 100 |  |  |  |  |
| Cn1cc(C#Cc2ccc(NC(=O)[C@@H]3COCCN3C(=O)[C@H](NC(=O)OC(C)(C)C)c3ccccc3)cc2)c(-c2cc(C#N)ccc2O)n1 [Compound 37] | < 1 | < 1 | > 100 |  |  |  |  |
| Cc1ccc(O)c(-c2nn(C)cc2C#Cc2ccc(NC(=O)C3CCCCN3C(=O)[C@H](Cc3ccc(F)cc3)NC(=O)OC(C)(C)C)cc2)c1 (stereo partly drawn) [Compound 5] | < 1 | < 1 | > 100 |  |  |  |  |

From patent publication US7923004B2 (priority 2006, dated 2011)
